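Dose response: 5 concentrations. Exposure: 48 h. Format: 96-well plates. Endpoint: linear interpolation; highest concentration if not reached. TGI marks complete inhibition of growth.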
Assays:
Assay in all cases: NCI anticancer screen, dose series, 48 h
786-0 renal = tested on: 786-0 renal
A498 renal = tested on: A498 renal
A549 NSCLC = tested on: A549 NSCLC
CAKI-1 renal = tested on: CAKI-1 renal
CCRF-CEM leukemia = tested on: CCRF-CEM leukemia
COLO 205 colon = tested on: COLO 205 colon
DLD-1 colon = tested on: DLD-1 colon
DMS 114 small cell lung = tested on: DMS 114 small cell lung
DMS 273 small cell lung = tested on: DMS 273 small cell lung
EKVX NSCLC = tested on: EKVX NSCLC
HCC-2998 colon = tested on: HCC-2998 colon
HCT-116 colon = tested on: HCT-116 colon
HCT-15 colon = tested on: HCT-15 colon
HL-60(TB) leukemia = tested on: HL-60(TB) leukemia
HOP-18 NSCLC = tested on: HOP-18 NSCLC
HOP-62 NSCLC = tested on: HOP-62 NSCLC
HOP-92 NSCLC = tested on: HOP-92 NSCLC
HT29 colon = tested on: HT29 colon
IGROV1 ovarian = tested on: IGROV1 ovarian
K-562 leukemia = tested on: K-562 leukemia
KM20L2 colon = tested on: KM20L2 colon
LOX IMVI melanoma = tested on: LOX IMVI melanoma
LXFL 529 NSCLC = tested on: LXFL 529 NSCLC
M14 melanoma = tested on: M14 melanoma
M19-MEL melanoma = tested on: M19-MEL melanoma
MALME-3M melanoma = tested on: MALME-3M melanoma
MOLT-4 leukemia = tested on: MOLT-4 leukemia
NCI-H226 lung = tested on: NCI-H226 lung
NCI-H23 lung = tested on: NCI-H23 lung
NCI-H460 lung = tested on: NCI-H460 lung
NCI-H522 lung = tested on: NCI-H522 lung
OVCAR-3 ovarian = tested on: OVCAR-3 ovarian
OVCAR-4 ovarian = tested on: OVCAR-4 ovarian
OVCAR-5 ovarian = tested on: OVCAR-5 ovarian
OVCAR-8 ovarian = tested on: OVCAR-8 ovarian
RPMI-8226 leukemia = tested on: RPMI-8226 leukemia
RXF 393 renal = tested on: RXF 393 renal
RXF-631 renal = tested on: RXF-631 renal
SF-268 CNS = tested on: SF-268 CNS
SF-295 CNS = tested on: SF-295 CNS
SF-539 CNS = tested on: SF-539 CNS
SK-MEL-5 melanoma = tested on: SK-MEL-5 melanoma
SK-OV-3 ovarian = tested on: SK-OV-3 ovarian
SN12C renal = tested on: SN12C renal
SNB-19 CNS = tested on: SNB-19 CNS
SNB-75 CNS = tested on: SNB-75 CNS
SNB-78 CNS = tested on: SNB-78 CNS
SR leukemia = tested on: SR leukemia
SW-620 colon = tested on: SW-620 colon
TK-10 renal = tested on: TK-10 renal
U251 CNS = tested on: U251 CNS
UACC-257 melanoma = tested on: UACC-257 melanoma
UACC-62 melanoma = tested on: UACC-62 melanoma
UO-31 renal = tested on: UO-31 renal
XF 498 CNS = tested on: XF 498 CNS
ACHN renal = tested on: ACHN renal
KM12 colon = tested on: KM12 colon
SK-MEL-2 melanoma = tested on: SK-MEL-2 melanoma
SK-MEL-28 melanoma = tested on: SK-MEL-28 melanoma

In the case of `COc1cc2c([C@@H](OC(=O)c3ccccc3)c3ccc4c(c3)OCO4)nccc2c(OC)c1OC`, the TGI (786-0 renal) is reported as greater than 100 µM, the TGI (A498 renal) is reported as greater than 100 µM and the TGI (A549 NSCLC) is reported as greater than 100 µM. For the same compound, the TGI (CAKI-1 renal) was greater than 100 µM, the TGI (CCRF-CEM leukemia) was greater than 100 µM and the TGI (COLO 205 colon) was greater than 100 µM. The TGI (DLD-1 colon) was greater than 100 µM, the TGI (DMS 114 small cell lung) was 84.1 µM and the TGI (DMS 273 small cell lung) was greater than 100 µM. For the same compound, the TGI (EKVX NSCLC) was greater than 100 µM, the TGI (HCC-2998 colon) was greater than 100 µM and the TGI (HCT-116 colon) was greater than 100 µM. It also gave a TGI (HCT-15 colon) greater than 100 µM, a TGI (HL-60(TB) leukemia) of 92.9 µM and a TGI (HOP-18 NSCLC) greater than 100 µM. The TGI (HOP-62 NSCLC) was greater than 100 µM, the TGI (HOP-92 NSCLC) was greater than 100 µM and the TGI (HT29 colon) was greater than 100 µM. It also gave a TGI (IGROV1 ovarian) greater than 100 µM, a TGI (K-562 leukemia) greater than 100 µM and a TGI (KM20L2 colon) greater than 100 µM. For the same compound, the TGI (LOX IMVI melanoma) was greater than 100 µM, the TGI (LXFL 529 NSCLC) was greater than 100 µM and the TGI (M14 melanoma) was greater than 100 µM. For the same compound, the TGI (M19-MEL melanoma) was greater than 100 µM, the TGI (MALME-3M melanoma) was greater than 100 µM and the TGI (MOLT-4 leukemia) was greater than 100 µM. For the same compound, the TGI (NCI-H226 lung) was 94.5 µM, the TGI (NCI-H23 lung) was greater than 100 µM and the TGI (NCI-H460 lung) was greater than 100 µM. It also gave a TGI (NCI-H522 lung) greater than 100 µM, a TGI (OVCAR-3 ovarian) greater than 100 µM and a TGI (OVCAR-4 ovarian) greater than 100 µM. It also gave a TGI (OVCAR-5 ovarian) greater than 100 µM, a TGI (OVCAR-8 ovarian) greater than 100 µM and a TGI (RPMI-8226 leukemia) of 51 µM. For the same compound, the TGI (RXF 393 renal) was 85.3 µM, the TGI (RXF-631 renal) was greater than 100 µM and the TGI (SF-268 CNS) was greater than 100 µM. The TGI (SF-295 CNS) was greater than 100 µM, the TGI (SF-539 CNS) was greater than 100 µM and the TGI (SK-MEL-5 melanoma) was 69.8 µM. It also gave a TGI (SK-OV-3 ovarian) greater than 100 µM, a TGI (SN12C renal) greater than 100 µM and a TGI (SNB-19 CNS) greater than 100 µM. For the same compound, the TGI (SNB-75 CNS) was greater than 100 µM, the TGI (SNB-78 CNS) was greater than 100 µM and the TGI (SR leukemia) was greater than 100 µM. The TGI (SW-620 colon) was greater than 100 µM, the TGI (TK-10 renal) was greater than 100 µM and the TGI (U251 CNS) was greater than 100 µM. It also gave a TGI (UACC-257 melanoma) greater than 100 µM, a TGI (UACC-62 melanoma) greater than 100 µM and a TGI (UO-31 renal) of 24.9 µM. For the same compound, the TGI (XF 498 CNS) was 90.9 µM.
Work on `C#C[C@H](CCCC)OC(=O)N[C@H](C)c1ccccc1` yielded a TGI (786-0 renal) greater than 100 µM, a TGI (A549 NSCLC) greater than 100 µM and a TGI (ACHN renal) greater than 100 µM. For the same compound, the TGI (CAKI-1 renal) was greater than 100 µM, the TGI (CCRF-CEM leukemia) was greater than 100 µM and the TGI (COLO 205 colon) was 48.7 µM. The TGI (DLD-1 colon) was greater than 100 µM, the TGI (DMS 114 small cell lung) was 81 µM and the TGI (DMS 273 small cell lung) was greater than 100 µM. The TGI (EKVX NSCLC) was greater than 100 µM, the TGI (HCT-116 colon) was 63.4 µM and the TGI (HL-60(TB) leukemia) was 40.7 µM. It also gave a TGI (HOP-18 NSCLC) greater than 100 µM, a TGI (HOP-62 NSCLC) greater than 100 µM and a TGI (HOP-92 NSCLC) greater than 100 µM. For the same compound, the TGI (HT29 colon) was greater than 100 µM, the TGI (IGROV1 ovarian) was greater than 100 µM and the TGI (K-562 leukemia) was greater than 100 µM. The TGI (KM12 colon) was greater than 100 µM, the TGI (KM20L2 colon) was greater than 100 µM and the TGI (LOX IMVI melanoma) was 87.8 µM. The TGI (LXFL 529 NSCLC) was greater than 100 µM, the TGI (M14 melanoma) was greater than 100 µM and the TGI (M19-MEL melanoma) was 93.8 µM. It also gave a TGI (MOLT-4 leukemia) of 94.8 µM, a TGI (NCI-H460 lung) greater than 100 µM and a TGI (NCI-H522 lung) of 86.8 µM. For the same compound, the TGI (OVCAR-3 ovarian) was greater than 100 µM, the TGI (OVCAR-4 ovarian) was greater than 100 µM and the TGI (OVCAR-5 ovarian) was 99 µM. It also gave a TGI (OVCAR-8 ovarian) greater than 100 µM, a TGI (RPMI-8226 leukemia) of 69.4 µM and a TGI (RXF 393 renal) of 92.4 µM. For the same compound, the TGI (RXF-631 renal) was greater than 100 µM, the TGI (SF-268 CNS) was greater than 100 µM and the TGI (SF-295 CNS) was greater than 100 µM. For the same compound, the TGI (SK-MEL-2 melanoma) was 68.4 µM, the TGI (SK-MEL-28 melanoma) was greater than 100 µM and the TGI (SK-MEL-5 melanoma) was 37 µM. For the same compound, the TGI (SK-OV-3 ovarian) was greater than 100 µM, the TGI (SN12C renal) was greater than 100 µM and the TGI (SNB-19 CNS) was greater than 100 µM. It also gave a TGI (SNB-75 CNS) greater than 100 µM, a TGI (SNB-78 CNS) greater than 100 µM and a TGI (SR leukemia) of 99.4 µM. The TGI (SW-620 colon) was greater than 100 µM, the TGI (TK-10 renal) was greater than 100 µM and the TGI (U251 CNS) was greater than 100 µM. For the same compound, the TGI (UACC-257 melanoma) was 71 µM, the TGI (UACC-62 melanoma) was greater than 100 µM and the TGI (UO-31 renal) was 75.8 µM. It also gave a TGI (XF 498 CNS) greater than 100 µM.

Reference: PubChem BioAssay (NCI)
